Assay: Safety: adverse events (NCI CTCAE v5.0), electrocardiograms
Assay type: in vivo, human
Details: phase 1a; for TEAE Neutropenia, Toxicity Grade All: includes neutropenia and neutrophil count decreased
Protocol: Safety assessments included the monitoring of AEs, clinical laboratory parameters, electrocardiograms, and vital signs. AE severity was graded according to the National Cancer Institute Common Terminology Criteria for Adverse Events (version 5.0).
All DLT analyses (phase 1a) were performed in patients enrolled in the study during cycle 1 and who either received 75% of the planned palazestrant doses or experienced a DLT during cycle 1. All PK analyses were performed in patients who received at least 1 dose of palazestrant and had adequate postbaseline PK samples for characterization of PK parameters. All safety analyses were performed and PFS assessed in patients who received at least 1 dose of palazestrant. Clinical response (CR or PR) was assessed in patients who received at least 1 cycle of palazestrant, had measurable disease at baseline, and had at least 1 postbaseline tumor assessment. CBR was assessed in patients who received at least 1 cycle of palazestrant, had at least 1 postbaseline tumor assessment, and started their first dose at least 24 weeks before data cutoff. Patients who discontinued study treatment without radiographic progression within 24 weeks from the first dose were not included in the CBR analysis. PK parameters were estimated using conventional noncompartmental methods. For CBR, estimates were accompanied by 2-sided 95% confidence intervals (95% CIs). For PFS, Kaplan–Meier analyses were used to determine medians, event-free rates, and 95% CIs. For all other outcomes, categorical data were analyzed using frequencies and percentages, and continuous data were analyzed using means (standard deviation) or medians (range), as appropriate.

## CCCN1CC(Oc2ccc([C@@H]3c4[nH]c5ccccc5c4C[C@@H](C)N3CC(C)(C)F)cc2)C1 [palazestrant, Palazestrant]
60 mg (N=6)
  TEAE Vomiting, Toxicity Grade G3: 0
  TEAE Vomiting, Toxicity Grade G4: 0
  TEAE Neutropenia, Toxicity Grade All: 1 (16.7)
90 mg (N=6)
  TEAE Constipation, Toxicity Grade All: 1 (16.7)
  TEAE Constipation, Toxicity Grade G3: 0
  TEAE Constipation, Toxicity Grade G4: 0
  TEAE Decreased appetite, Toxicity Grade All: 1 (16.7)
  TEAE Decreased appetite, Toxicity Grade G3: 0
  TEAE Decreased appetite, Toxicity Grade G4: 0
  TEAE Diarrhea, Toxicity Grade All: 0
  TEAE Diarrhea, Toxicity Grade G3: 0
  TEAE Diarrhea, Toxicity Grade G4: 0
  TEAE Fatigue, Toxicity Grade All: 0
  TEAE Fatigue, Toxicity Grade G3: 0
  TEAE Fatigue, Toxicity Grade G4: 0
  TEAE Headache, Toxicity Grade All: 1 (16.7)
  TEAE Headache, Toxicity Grade G3: 0
  TEAE Headache, Toxicity Grade G4: 0
  TEAE Maculopapular rash, Toxicity Grade All: 0
  TEAE Maculopapular rash, Toxicity Grade G3: 0
  TEAE Maculopapular rash, Toxicity Grade G4: 0
  TEAE Nausea, Toxicity Grade All: 2 (33.3)
  TEAE Nausea, Toxicity Grade G3: 0
  TEAE Nausea, Toxicity Grade G4: 0
  TEAE Neutropenia, Toxicity Grade G3: 0
  TEAE Neutropenia, Toxicity Grade G4: 0
  TEAE Vomiting, Toxicity Grade All: 1 (16.7)
  TEAE Vomiting, Toxicity Grade G3: 0
  TEAE Vomiting, Toxicity Grade G4: 0
  TEAE Neutropenia, Toxicity Grade All: 0
120 mg (N=6)
  TEAE Constipation, Toxicity Grade All: 0
  TEAE Constipation, Toxicity Grade G3: 0
  TEAE Constipation, Toxicity Grade G4: 0
  TEAE Decreased appetite, Toxicity Grade All: 1 (16.7)
  TEAE Decreased appetite, Toxicity Grade G3: 0
  TEAE Decreased appetite, Toxicity Grade G4: 0
  TEAE Diarrhea, Toxicity Grade All: 1 (16.7)
  TEAE Diarrhea, Toxicity Grade G3: 0
  TEAE Diarrhea, Toxicity Grade G4: 0
  TEAE Fatigue, Toxicity Grade All: 2 (33.3)
  TEAE Fatigue, Toxicity Grade G3: 0
  TEAE Fatigue, Toxicity Grade G4: 0
  TEAE Headache, Toxicity Grade All: 1 (16.7)
  TEAE Headache, Toxicity Grade G3: 0
  TEAE Headache, Toxicity Grade G4: 0
  TEAE Maculopapular rash, Toxicity Grade All: 1 (16.7)
  TEAE Maculopapular rash, Toxicity Grade G3: 0
  TEAE Maculopapular rash, Toxicity Grade G4: 0
  TEAE Nausea, Toxicity Grade All: 5 (83.3)
  TEAE Nausea, Toxicity Grade G3: 0
  TEAE Nausea, Toxicity Grade G4: 0
  TEAE Neutropenia, Toxicity Grade G3: 0
  TEAE Neutropenia, Toxicity Grade G4: 1 (16.7)
  TEAE Vomiting, Toxicity Grade All: 2 (33.3)
  TEAE Vomiting, Toxicity Grade G3: 1 (16.7)
  TEAE Vomiting, Toxicity Grade G4: 0
  TEAE Neutropenia, Toxicity Grade All: 2 (33.3)
150 mg (N=5)
  TEAE Constipation, Toxicity Grade All: 0
  TEAE Constipation, Toxicity Grade G3: 0
  TEAE Constipation, Toxicity Grade G4: 0
  TEAE Decreased appetite, Toxicity Grade All: 1 (20.0)
  TEAE Decreased appetite, Toxicity Grade G3: 0
  TEAE Decreased appetite, Toxicity Grade G4: 0
  TEAE Diarrhea, Toxicity Grade All: 1 (20.0)
  TEAE Diarrhea, Toxicity Grade G3: 0
  TEAE Diarrhea, Toxicity Grade G4: 0
  TEAE Fatigue, Toxicity Grade All: 1 (20.0)
  TEAE Fatigue, Toxicity Grade G3: 1 (20.0)
  TEAE Fatigue, Toxicity Grade G4: 0
  TEAE Headache, Toxicity Grade All: 1 (20.0)
  TEAE Headache, Toxicity Grade G3: 0
  TEAE Headache, Toxicity Grade G4: 0
  TEAE Maculopapular rash, Toxicity Grade All: 0
  TEAE Maculopapular rash, Toxicity Grade G3: 0
  TEAE Maculopapular rash, Toxicity Grade G4: 0
  TEAE Nausea, Toxicity Grade All: 4 (80.0)
  TEAE Nausea, Toxicity Grade G3: 1 (20.0)
  TEAE Nausea, Toxicity Grade G4: 0
  TEAE Neutropenia, Toxicity Grade G3: 0
  TEAE Neutropenia, Toxicity Grade G4: 1 (20.0)
  TEAE Vomiting, Toxicity Grade All: 2 (40.0)
  TEAE Vomiting, Toxicity Grade G3: 0
  TEAE Vomiting, Toxicity Grade G4: 0
  TEAE Neutropenia, Toxicity Grade All: 2 (40.0)
210 mg (N=7)
  TEAE Constipation, Toxicity Grade All: 4 (57.1)
  TEAE Constipation, Toxicity Grade G3: 0
  TEAE Constipation, Toxicity Grade G4: 0
  TEAE Decreased appetite, Toxicity Grade All: 3 (42.9)
  TEAE Decreased appetite, Toxicity Grade G3: 0
  TEAE Decreased appetite, Toxicity Grade G4: 0
  TEAE Diarrhea, Toxicity Grade All: 0
  TEAE Diarrhea, Toxicity Grade G3: 0
  TEAE Diarrhea, Toxicity Grade G4: 0
  TEAE Fatigue, Toxicity Grade All: 2 (28.6)
  TEAE Fatigue, Toxicity Grade G3: 0
  TEAE Fatigue, Toxicity Grade G4: 0
  TEAE Headache, Toxicity Grade All: 0
  TEAE Headache, Toxicity Grade G3: 0
  TEAE Headache, Toxicity Grade G4: 0
  TEAE Maculopapular rash, Toxicity Grade All: 2 (28.6)
  TEAE Maculopapular rash, Toxicity Grade G3: 0
  TEAE Maculopapular rash, Toxicity Grade G4: 0
  TEAE Nausea, Toxicity Grade All: 4 (57.1)
  TEAE Nausea, Toxicity Grade G3: 0
  TEAE Nausea, Toxicity Grade G4: 0
  TEAE Neutropenia, Toxicity Grade G3: 0
  TEAE Neutropenia, Toxicity Grade G4: 0
  TEAE Vomiting, Toxicity Grade All: 1 (14.3)
  TEAE Vomiting, Toxicity Grade G3: 0
  TEAE Vomiting, Toxicity Grade G4: 0
  TEAE Neutropenia, Toxicity Grade All: 1 (14.3)
300 mg (N=7)
  TEAE Constipation, Toxicity Grade All: 3 (42.9)
  TEAE Constipation, Toxicity Grade G3: 0
  TEAE Constipation, Toxicity Grade G4: 0
  TEAE Decreased appetite, Toxicity Grade All: 3 (42.9)
  TEAE Decreased appetite, Toxicity Grade G3: 0
  TEAE Decreased appetite, Toxicity Grade G4: 0
  TEAE Diarrhea, Toxicity Grade All: 1 (14.3)
  TEAE Diarrhea, Toxicity Grade G3: 0
  TEAE Diarrhea, Toxicity Grade G4: 0
  TEAE Fatigue, Toxicity Grade All: 4 (57.1)
  TEAE Fatigue, Toxicity Grade G3: 0
  TEAE Fatigue, Toxicity Grade G4: 0
  TEAE Headache, Toxicity Grade All: 4 (57.1)
  TEAE Headache, Toxicity Grade G3: 0
  TEAE Headache, Toxicity Grade G4: 0
  TEAE Maculopapular rash, Toxicity Grade All: 2 (28.6)
  TEAE Maculopapular rash, Toxicity Grade G3: 0
  TEAE Maculopapular rash, Toxicity Grade G4: 0
  TEAE Nausea, Toxicity Grade All: 6 (85.7)
  TEAE Nausea, Toxicity Grade G3: 1 (14.3)
  TEAE Nausea, Toxicity Grade G4: 0
  TEAE Neutropenia, Toxicity Grade G3: 0
  TEAE Neutropenia, Toxicity Grade G4: 1 (14.3)
  TEAE Vomiting, Toxicity Grade All: 5 (71.4)
  TEAE Vomiting, Toxicity Grade G3: 0
  TEAE Vomiting, Toxicity Grade G4: 0
  TEAE Neutropenia, Toxicity Grade All: 3 (42.9)
Total (N=42)
  TEAE Constipation, Toxicity Grade All: 10 (23.8)
  TEAE Constipation, Toxicity Grade G3: 0
  TEAE Constipation, Toxicity Grade G4: 0
  TEAE Decreased appetite, Toxicity Grade All: 10 (23.8)
  TEAE Decreased appetite, Toxicity Grade G3: 0
  TEAE Decreased appetite, Toxicity Grade G4: 0
  TEAE Diarrhea, Toxicity Grade All: 7 (16.7)
  TEAE Diarrhea, Toxicity Grade G3: 0
  TEAE Diarrhea, Toxicity Grade G4: 0
  TEAE Fatigue, Toxicity Grade All: 14 (33.3)
  TEAE Fatigue, Toxicity Grade G3: 1 (2.4)
  TEAE Fatigue, Toxicity Grade G4: 0
  TEAE Headache, Toxicity Grade All: 9 (21.4)
  TEAE Headache, Toxicity Grade G3: 0
  TEAE Headache, Toxicity Grade G4: 0
  TEAE Maculopapular rash, Toxicity Grade All: 7 (16.7)
  TEAE Maculopapular rash, Toxicity Grade G3: 0
  TEAE Maculopapular rash, Toxicity Grade G4: 0
  TEAE Nausea, Toxicity Grade All: 25 (59.5)
  TEAE Nausea, Toxicity Grade G3: 2 (4.8)
  TEAE Nausea, Toxicity Grade G4: 0
  TEAE Neutropenia, Toxicity Grade G3: 0
  TEAE Neutropenia, Toxicity Grade G4: 4 (9.5)
  TEAE Vomiting, Toxicity Grade All: 13 (31.0)
  TEAE Vomiting, Toxicity Grade G3: 1 (2.4)
  TEAE Vomiting, Toxicity Grade G4: 0
  TEAE Neutropenia, Toxicity Grade All: 10 (23.8)
